Like-named read-outs stand apart in the source and are kept apart here.
Legend:
[1] = cited from earlier work; for ionization rate: in aqueous solution; for Reported pK values: values below 2 refer to release of a single carboxy anion
[2] = test system: genitals (both persons, during intercourse); experiment: Irritation test of lubricant during intercourse / human volunteers; assay type: in vivo; settings: human, in vivo
From the text: Subsequently, the gel formulation was applied topically and used as a sexual lubricant during intercourse. Both people wiped off the excess with a tissue after intercourse, but neither person showered or washed off the lubricant until the following day. It caused no irritation to either person.

forearm = experiment: Irritation test on forearm / skin; assay type: in vivo, human; settings: in vivo
Procedure: Zinc acetate was purchased from Pfaltz and Bauer (Waterbury, Connecticut). About 0.5 grams were mixed with several drops of distilled water at room temperature. […] The aqueous mixture was rubbed into an area about 3 cm in diameter on the forearm of […] and caused no irritation. Subsequently, about 0.5 grams of the salt were dissolved in a few drops of distilled water, then 10 ml K-Y Lubricating Jelly (sold by Johnson and Johnson, New Brunswick, N.J.) was added to form a gel mixture containing about 5% zinc acetate (w/v). This commercially available mixture contains purified water, hydroxyethyl-cellulose as a thickening agent, glycerin as a lubricant, glucono-delta-lactate to prevent crystallization, chlorhexidine gluconate as a preservative, and sodium hydroxide to reduce the acidity.

[3] = Acidity tests: pH of 5% w/v zinc salt solutions; settings: for pH of solution (rounded) / pH of solution: 5% w/v in distilled deionized water; for pH of solution: 0.05 subtracted from meter reading, approximately accurate
male genitals = experiment: Irritation test on male genitals / urethra; settings: in vivo
Procedure: In all examples, the test subjects were a monogamous married couple, free of genital herpes and all other known sexually transmitted viruses.
The mixture of zinc acetate in K-Y Lubricating Jelly was tested on the male genitals, passively at first and then with active rubbing.
About 0.5 grams were dissolved in several drops of distilled water and tested on the forearm and genitals.

vagina = experiment: Irritation test in shallow region of the vagina (volunteer); assay type: in vivo, human; settings: human, in vivo
[4] = test system: genitals (both persons, during intercourse); settings: cited from earlier work
sperm cells = settings: undiluted semen; Eliasson 1971, Paz et al 1977; cited from earlier work
H-9 lymphocytes = experiment: Toxicity to lymphocytes; assay type: cell-based; settings: at the concentrations of interest
Procedure: In a first set of tests, 20 mg of zinc acetate powder (ZnAc, MW 183.4) was mixed in 1 ml RPMI cell culture medium (Whittaker Corp.). This 2% (w/v) salt mixture contained 7 mg/ml elemental Zn. […] Therefore, a small quantity of HCl was added until the mixture became clear; the pH was about 5.5. The Zn concentration was reduced by half (and the pH was raised somewhat) when an equal volume (1 ml) of cell-free high-titer HIV-1 viral stock was added. The zinc/virus mixture was stirred and incubated for 2 hours at 37° C. (i.e., normal body temperature).
Following this first incubation step, the zinc/virus mixtures were diluted at 1:10, 1:30, and 1:100 ratios using culture medium, and aliquots were added to equal volumes of culture media containing H-9 lymphocytes that had been pretreated overnight with 2 μg/ml Polybreen. The lymphocyte mixtures were incubated for three hours at 37° C.; zinc concentrations during this step were 180, 60, and 18 μg/ml for the 1:10, 1:30, and 1:100 dilutions.
A 2 ml aliquot from each dilution was mixed with an equal volume of 3% ZnAc dissolved in sterile distilled water; after mixing, the zinc concentration was 5.3 mg/ml Zn. These mixtures were incubated for 2 hours, then diluted with culture medium at 1:30, 1:100, and 1:1000 to reduce the toxicity of the zinc to lymphocytes. Four ml of lymphocytes were mixed with 4 ml of each zinc/virus mixture. The zinc/virus/cell mixtures were incubated at 37° C. for 3 hours; zinc concentrations were 88, 27, and 2.7 μg/ml in the 30, 100, and 1000 dilutions.

[5] = test system: herpes simplex virus (HSV); experiment: Herpes simplex virus plaque assay on CV-1 cells; settings: in vitro tests
Procedure: The first step of this assay models what happens inside the vaginal cavity. In this part of the assay, the candidate anti-viral agent (such as a zinc salt) was mixed and incubated for a relatively brief period with HIV particles. […] In subsequent tests using herpes viruses (which are much easier to work with than HIV), a range of first-stage incubation times were tested, ranging from 2 hours to only 5 minutes.
Susceptible lymphocyte cells were then added to this mixture, and a second incubation step was carried out for a number of days (20 days or more, when HIV was tested; 3 days, when herpes viruses were tested in plaque assays) to determine whether zinc-treated or untreated viruses would infect the lymphocytes.
After those toxicity tests had been evaluated, the viral inhibition tests were done on CV-1 cells, an immortalized cell line originally from a monkey kidney, which is highly and reliably susceptible to herpes virus infection, and which is widely used in in vitro tests on herpes viruses.
Tests were also carried out using a range of zinc salt concentrations, from 50 mM down to 5 mM, using constant 2 hour incubation periods.

In the case of `[Cl-].[Cl-].[Zn+2]` [Zinc chloride], the ionization rate [1] is given as about 100%, the “irritation in initial tests” value [2] is given as “significant irritation” and the “burning, forearm” value (forearm) is given as “immediately caused a burning sensation”.

For `O=C[O-].O=C[O-].[Zn+2]` [Zinc formate], the “Reported pK values: pK1” value ([1]; in water) is given as 0.6 and the “Reported pK values: pK2” value ([1]; in water) is given as 0.95.

In the case of `O=C(O)CO.O=C(O)CO.[Zn]` [Zinc glycolate], the “Reported pK values” ([1]; in water) is given as 1.92.

For `CC(O)C(=O)[O-].CC(O)C(=O)[O-].[Zn+2]` (stereo not shown) [Zinc lactate], the “Reported pK values” ([1]; in water) is listed as 1.86, the MCC (several cell lines) is listed as about 200 mM and the irritation during intercourse [2] is listed as “no irritation of any sort”. The “pH of solution (rounded)” value [3] was “about 6.2” and the pH of solution [3] was 6.16.

In the case of `CCC(=O)[O-].CCC(=O)[O-].[Zn+2]` [Zinc propionate], the “irritation, male genital skin” value (male genitals) is reported as “no irritation”, the “irritation, male genitals” value (male genitals) is reported as “did not cause any irritation” and the “irritation, urethra” value (male genitals) is reported as “substantial irritation”. The “Reported pK values” ([1]; in water) was 1.01, the “irritation of gel / genital lubricant formulations” value [2] was “did not cause any irritation” and the “irritation, vagina” value (vagina) was “vaginal irritation”. The “irritation, vagina / female genitals” value (vagina) was “no irritation”, the “burning and irritation to the skin” value (forearm) was “substantial amount of burning and irritation to the skin” and the “irritation, forearm” value (forearm) was “no irritation”.

For `O=S(=O)([O-])[O-].[Zn+2]` [Zinc sulfate], the “irritation, male genital skin” value (male genitals) is given as “did not cause any irritation”, the “irritation, urethra” value (male genitals) is given as “did not cause any irritation” and the ionization rate [1] is given as about 100%. The “irritation in initial tests” value [2] was “significant irritation”, the “irritation, human volunteers” value [2] was “no noticeable irritation” and the “acidity relative to zinc acetate or lactate solution” value ([3]; 5% solutions) was “about 4 times”. For the same compound, the “pH drop relative to zinc acetate or lactate solution” value ([3]; 5% solutions, from 6.2 to 5.6) was 0.6, the “pH of solution (rounded)” value [3] was “about 5.6” and the pH of solution [3] was 5.58. For the same compound, the “irritation (prior art / known)” value ([4]; human, in vivo) was “substantial burning and irritation in most people”, the “irritation, person, passive test” value (vagina) was “tingling, burning sensation” and the “irritation, forearm” value (forearm) was “did not cause any irritation”.

In the case of `[Zn+2]` [zinc], the “effect on sperm respiratory activity and motility” value (sperm cells) is listed as “suppresses the respiratory activity and motility of sperm cells”, the toxicity to lymphocytes (H-9 lymphocytes) is listed as “toxic to lymphocytes” and the “effect on physical irritation caused by nonoxynol” value [2] is listed as “can actually reduce the physical irritation that is caused by nonoxynol”.

For Zinc butyrate, the “Reported pK values” ([1]; in water) is given as 1.00.

In the case of Zinc gluconate, the “anti-viral effect against herpes viruses” value [5] is given as “clearly effective in preventing infection by herpes viruses”, the “irritation, male genitals” value (male genitals) is given as “no irritation” and the “Reported pK values” ([1]; in water) is given as 1.70. For the same compound, the MCC (several cell lines) was about 200 mM, the abrasion during intercourse [2] was “no abrasion was noticeable” and the “irritation, vagina / female genitals” value (vagina) was “no irritation”. For the same compound, the “irritation, forearm” value (forearm) was “no irritation”.

For Zinc glycerate, the “Reported pK values” ([1]; in water) is given as 1.80.

For nonoxynol, the “irritation (prior art / known)” value ([4]; literature or general knowledge) is given as “cause irritation in many users”.

In the case of octoxynol, the “irritation (prior art / known)” value ([4]; human, in vivo) is listed as “cause irritation in many users”.
